Measured values published in patent US20040006236A1, “Diaminopropionic acid derivatives” (priority 1999, published 2004).

Key:
[1] = target: T1, LFA-1 binding to immobilized ICAM-1 (Homo sapiens, UniProt P05107+P20701); experiment: LFA-1/ICAM-1 protein-protein assay (solid-phase ELISA); conditions: read-out: LFA-1/ICAM-1 Protein-Protein Assay IC50
T1 construct: made in house; host or cells: transfected 293 cells (LFA-1)
Outline: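 Human 5dICAM-Ig (ICAM-1 extracellular domain–IgG Fc) coated on plates; membrane-bound LFA-1 from transfected 293 cells (280 ng/mL) added with compound in Mn2+-containing HEPES buffer pH 7.2, 2 h at 37° C. Bound LFA-1 detected via anti-β2 antibody and HRP/TMB at 450 nm; IC50s determined.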

[2] = test system: T lymphocyte proliferation (C57BI/6 spleen cells with irradiated BALB/c spleen cells); experiment: Mixed lymphocyte reaction (MLR), one-way; format: cell-based, mice; conditions: Mus musculus, T-lymphocyte; read-out: MLR IC50
Source text: Admixture of murine spleen cells from two different inbred strains of mice induces proliferation of T lymphocytes. The magnitude of T cell proliferation depends on the extent of disparity in the major histocompatibility antigens between the two strains. Splenic T lymphocytes from both strains proliferate due to alloantigen recognition, a process for which the interaction of ICAM-1 on antigen-presenting cells with LFA-1 on lymphocytes is necessary. The ability of antagonists to inhibit T lymphocyte proliferation following recognition of alloantigens was assessed in a one-way MLR, where cells from one strain were irradiated to permit measurement of the proliferative response of cells from the other strain. Spleen cells were washed three times in tissue culture medium (TCM; see below). […] One hundred microliters of serial dilutions of antagonists or TCM were added to the spleen cell mixture. The total volume in each well was 200 μL. TCM was RPMI1640 containing 10% heat-inactivated fetal bovine serum, […] L-glutamine, 100 Units/ml each of penicillin and streptomycin and 5×10^−5 M 2-mercaptoethanol. Dilutions of antagonists were prepared in TCM. Plates were incubated in 5% CO2 for 3 days. On the third day, 0.5 μCi of tritiated thymidine (10 μCi/mL) was added to all the wells. Cells were harvested 6 h later on a 96-well plate harvester and the amount of tritiated thymidine incorporated was assessed in a liquid scintillation counter.

[3] = test system: Mac-1 and LFA-1-mediated neutrophil binding to immobilized ICAM-1; experiment: Neutrophil (Mac-1 and LFA-1)/ICAM-1 cell-based screening assay; conditions: human neutrophils
Experimental: Both Mac-1 and LFA-1 are expressed on the cell surface of neutrophils. The ability of antagonists to inhibit Mac-1 and LFA-1-mediated neutrophil binding to immobilized ICAM-1 was quantitated by a cell based assay. Typically, fusion protein consisting of the entire extracellular domain of human ICAM-1 and the Fc domain of human IgG (5dICAM-Ig) was coated onto 96 well microtiter plates (1 μg in 100 μL TBS) overnight at 4° C. The plates were then blocked with 150 μL of 10% PVP in TBS for 1 h at 37° C. Plates were washed 3 times (150 μL each) with TBS. Human neutrophils were purified from whole blood from healthy volunteers using LSM (ICN). Cells (8×10^6/mL) were fluorescently labeled with 6-carboxyfluorescein (100 μg/mL) for 40 min in IMDM/1 mM MgCl2/1.2 mM CaCl2 as described in Example 287. Cells (8×10^6/mL) were stimulated with f-Met-Leu-Phe (10 μM) for 5 min at room temperature just prior to being used in the assay, and diluted to 2×10^6 cells/mL with RPMI/0.05% BSA/0.2 mM MnCl2. Stock solutions (10 mM) of test compounds were diluted to 2.5 mM with DMSO. A series of 1:4 dilutions in DMSO were performed to achieve a concentration range of 38.2 nM-2.5 mM. Each sample was further diluted 50-fold with RPMI/0.05% BSA/0.2 mM MnCl2. Equal volumes of labeled cells were then added to assay tubes containing diluted compound. Final concentrations of compound tested in the assay ranged from 0.38 nM-25 μM with a cell concentration of 1×10^6 per mL. Cells were incubated for 10 min at 37° C. with gentle shaking, then dispensed (100 μL per well) onto ICAM-1 coated plates and incubated for 30 min at 37° C./5% CO2. Unbound cells were washed and plates were read on a Cytofluor™ 2300 (Millipore) as described in Example 384.

T1 sequence (P20701 26-1170): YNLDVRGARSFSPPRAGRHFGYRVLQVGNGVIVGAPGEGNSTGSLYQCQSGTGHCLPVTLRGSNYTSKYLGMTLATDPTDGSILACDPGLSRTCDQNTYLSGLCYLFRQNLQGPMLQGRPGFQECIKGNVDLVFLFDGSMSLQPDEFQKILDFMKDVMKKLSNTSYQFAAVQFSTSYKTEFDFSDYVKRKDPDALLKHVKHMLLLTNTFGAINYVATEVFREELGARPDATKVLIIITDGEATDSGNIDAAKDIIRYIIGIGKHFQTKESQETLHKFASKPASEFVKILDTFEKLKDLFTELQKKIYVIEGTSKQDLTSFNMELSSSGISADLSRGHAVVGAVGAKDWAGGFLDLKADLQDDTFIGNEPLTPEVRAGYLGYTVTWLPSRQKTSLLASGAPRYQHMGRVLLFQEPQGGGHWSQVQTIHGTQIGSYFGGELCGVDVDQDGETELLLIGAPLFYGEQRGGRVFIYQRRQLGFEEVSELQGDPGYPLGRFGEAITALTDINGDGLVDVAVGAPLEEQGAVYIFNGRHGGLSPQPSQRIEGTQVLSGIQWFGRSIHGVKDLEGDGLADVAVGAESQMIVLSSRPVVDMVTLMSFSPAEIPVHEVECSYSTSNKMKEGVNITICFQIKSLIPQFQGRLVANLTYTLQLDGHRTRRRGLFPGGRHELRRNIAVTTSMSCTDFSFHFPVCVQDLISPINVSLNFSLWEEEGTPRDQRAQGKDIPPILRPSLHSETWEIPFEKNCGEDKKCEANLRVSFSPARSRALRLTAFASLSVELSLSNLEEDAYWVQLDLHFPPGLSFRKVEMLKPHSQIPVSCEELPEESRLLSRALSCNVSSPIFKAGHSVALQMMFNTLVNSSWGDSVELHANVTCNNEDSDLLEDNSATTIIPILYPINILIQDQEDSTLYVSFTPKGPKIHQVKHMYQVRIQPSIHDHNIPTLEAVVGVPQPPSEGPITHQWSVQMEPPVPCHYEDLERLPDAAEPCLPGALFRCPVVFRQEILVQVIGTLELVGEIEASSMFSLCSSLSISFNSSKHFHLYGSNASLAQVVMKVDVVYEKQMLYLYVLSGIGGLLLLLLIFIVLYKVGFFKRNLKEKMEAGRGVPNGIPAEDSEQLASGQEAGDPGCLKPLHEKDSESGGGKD
T1 sequence (P05107 23-769): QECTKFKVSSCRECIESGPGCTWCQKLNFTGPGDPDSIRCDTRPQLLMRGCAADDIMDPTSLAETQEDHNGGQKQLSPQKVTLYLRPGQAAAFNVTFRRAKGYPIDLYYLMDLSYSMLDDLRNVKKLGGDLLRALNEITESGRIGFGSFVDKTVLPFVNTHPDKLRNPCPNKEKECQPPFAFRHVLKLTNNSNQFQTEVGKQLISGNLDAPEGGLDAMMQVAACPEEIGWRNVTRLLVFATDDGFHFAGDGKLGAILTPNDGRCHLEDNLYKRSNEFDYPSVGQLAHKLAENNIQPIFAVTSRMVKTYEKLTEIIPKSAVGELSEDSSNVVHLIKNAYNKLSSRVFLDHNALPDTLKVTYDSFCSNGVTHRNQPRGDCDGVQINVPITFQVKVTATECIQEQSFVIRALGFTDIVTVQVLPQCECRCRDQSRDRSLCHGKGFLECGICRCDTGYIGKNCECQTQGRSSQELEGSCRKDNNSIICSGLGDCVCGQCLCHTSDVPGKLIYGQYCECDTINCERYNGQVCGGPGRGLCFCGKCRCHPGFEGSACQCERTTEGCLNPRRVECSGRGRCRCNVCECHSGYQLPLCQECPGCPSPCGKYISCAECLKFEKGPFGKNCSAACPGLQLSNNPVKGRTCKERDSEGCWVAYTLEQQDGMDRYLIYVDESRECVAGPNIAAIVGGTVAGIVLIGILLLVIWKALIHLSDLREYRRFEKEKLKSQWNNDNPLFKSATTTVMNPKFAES

- IC50 [1]: 0.3 nM
- IC50 [3]: 0.3 nM
Structure (SMILES): Cc1cc(C(=O)NCc2cccc(O)c2)cc(Cl)c1C(=O)N[C@@H](CNC(=O)c1cc(O)cc(O)c1)C(=O)O [Example 341, N-[2-chloro-4-[[[(3-hydroxyphenyl)methyl]amino]carbonyl]-6-methylbenzoyl]-3-(3,5-dihydroxybenzoylamino)-L-alanine]
- IC50 [2]: 3 nM
